Assays:
Format in all cases: in vivo
[1] = system: Perennial ryegrass v. blend of Bright Star, Citation Fore and Quick Trans; assay: Phytotoxicity of granule formulations with safeners (Table B4.5); settings: 8 DAT
Experimental: The phytotoxicity to turfgrass of the compound of formula I in combination with various safeners was tested. The combinations were applied by post emergence spray application. Percentage phytotoxicity assessments were taken at various timepoints. The safeners tested in these trials were cloquintocet-mexyl, cyprosulfamide, a compound of formula 2.3, and isoxadifen-ethyl.
Tables B4.4 and B4.5 present the results of trials using safeners applied in combination with granule formulations of the compound of formula I.

[2] = system: Bermudagrass v. Tifway 419; assay: Phytotoxicity via granule application (Table B3.2)
Paspalum sp. = assay: Weed control via post emergence spray, in common centipedegrass (Table B5.1)
Experimental: The weed control efficacy of the compound of formula I was tested. The compound was applied via post emergence spray to a range of weeds, at various rates and spray treatment treatment regimes. Percentage weed control assessments were taken at various timepoints.

[3] = system: Bermudagrass v. Tifway 419; assay: Phytotoxicity via granule application (Table B3.2); remark: listed apart in the source
Experimental: The phytotoxicity of the compound of formula I to turfgrass species was tested. The compound was applied by distribution of granule formulations of formula I, post emergence, to turfgrass species at two rates. All treatments were watered-in 1 day after application. Percentage phytotoxicity assessments were taken at various timepoints.
Two granule formulations were made and tested. Granule A is an inert granule formulation, comprising 99.06 wt % DG Lite 150 granules, 0.14 wt % compound of formula I, 0.50 wt % Sunspray 6N, and 0.30 wt % HiSil 233. The compound of formula I was added to the DG Lite granules while blending in a Continental Rollo-mixer.
Sunspray 6N oil was then sprayed onto the granules, and HiSil added to dry excess liquid and improve granule flowability. The granules were blended in the mixer for 20-30 minutes until homogeneous, and passed through a −12/+60 mesh to remove over and under sized particles.
Granule B is a fertiliser granule formulation, comprising 54.65 wt % urea, 6.63 wt % triple super phosphate, 4.95 wt % potassion chloride, 9.91 wt % huber clay, 7.22 wt % HiSil 233, 0.16 wt % compound of formula I, […] agnique ME 181, 2.07 wt % stepfac 8180, and 11.98 wt % water. […] The remaining HiSil was added and granules dried at 40-60° C., to remove excess liquid. Finally, the granules were passed through a −12/+60 mesh to remove over and under sized particles.

Dandelion = assay: Selective post-emergence herbicidal action, field trial Hudson (Table B1.2); settings: 28 days after application
Experimental: (§1) The selectivity of the compound of formula I in turf (removal of grassy and broadleaf weeds) has been tested in turfgrass varieties selected from Kentucky bluegrass, tall fescue and perennial ryegrass and in […] selected from clover (an aggressive perennial weed) and dandelion (a weed of perennial horticultural crops and gardens which may also be a problem in some annual crops, particularly where reduced tillage is practiced).
(§2) The trials were conducted in Champaign, Ill., U.S. (Table B1.1) and Hudson, N.Y., U.S. (Table B1.2) under field conditions. Turfgrasses were maintained at approximately a 2.5″ height, like a home lawn. Mixed turf and weed stands were present. The test compounds were applied with a CO2 pressurized backpack sprayer by spraying in the form of an aqueous suspension (prepared from a wettable powder) in a concentration of 210 to 280 g/ha. The plots were then mowed and irrigated as needed. After 22 and 28 days respectively, the test is visually evaluated (100%=total damage to plant; 0%=no damage to plant).

Tall fescue = assay: as above; settings: 28 days after application
Experimental: as §1, §2

For `COCCOCc1nc(C(F)(F)F)ccc1C(=O)C1=C(O)C2CCC(C2)C1=O` (stereo not shown) [Formula I, 4-Hydroxy-3-[2-(2-methoxyethoxymethyl)-6-trifluoromethylpyridine-3-carbonyl]-bicyclo[3.2.1]oct-3-en-2-one], the “% phytotoxicity” value ([1]; DG Lite granule, no safener, 520 g ai/ha) was 18.8%, the “% phytotoxicity” value ([1]; DG Lite granule, safener Cyprosulfamide (0.07%), 520 g ai/ha) was 21.3% and the “% phytotoxicity” value ([1]; DG Lite granule, safener Formula 2.3 (0.07%), 520 g ai/ha) was 20.0%. For the same molecule, the “% phytotoxicity” value ([1]; DG Lite granule, safener Isoxadifen (0.07%), 520 g ai/ha) was 21.3%, the “% phytotoxicity” value ([1]; Spray, no safener, 260 g ai/ha) was 31.3% and the “% phytotoxicity” value ([2]; Granule A (inert), 112 g ai/ha, 15 DAT) was 0.00%. For the same molecule, the “% phytotoxicity” value ([2]; Granule A (inert), 112 g ai/ha, 20 DAT) was 0.00%, the “% phytotoxicity” value ([2]; Granule A (inert), 112 g ai/ha, 28 DAT) was 0.00% and the “% phytotoxicity” value ([2]; Granule A (inert), 280 g ai/ha, 28 DAT) was 0.00%. For the same molecule, the “% phytotoxicity” value ([2]; Granule B (fertiliser), 112 g ai/ha, 11 DAT) was 4.00%, the “% phytotoxicity” value ([2]; Granule B (fertiliser), 112 g ai/ha, 15 DAT) was 0.00% and the “% phytotoxicity” value ([2]; Granule B (fertiliser), 112 g ai/ha, 20 DAT) was 0.00%. For the same molecule, the “% phytotoxicity” value ([2]; Granule B (fertiliser), 112 g ai/ha, 28 DAT) was 0.00%, the “% phytotoxicity” value ([2]; Granule B (fertiliser), 280 g ai/ha, 11 DAT) was 15.00% and the “% phytotoxicity” value ([2]; Granule B (fertiliser), 280 g ai/ha, 15 DAT) was 3.30%. For the same molecule, the “% phytotoxicity” value ([2]; Granule B (fertiliser), 280 g ai/ha, 20 DAT) was 1.30%, the “% phytotoxicity” value ([2]; Granule B (fertiliser), 280 g ai/ha, 28 DAT) was 0.00% and the “% phytotoxicity” value ([2]; Spray, 112 g ai/ha, 7 DAT) was 30.00%. For the same molecule, the “% phytotoxicity” value ([2]; Spray, 112 g ai/ha, 11 DAT) was 18.30%, the “% phytotoxicity” value ([2]; Spray, 112 g ai/ha, 15 DAT) was 10.00% and the “% phytotoxicity” value ([2]; Spray, 112 g ai/ha, 20 DAT) was 3.00%. For the same molecule, the “% phytotoxicity” value ([2]; Spray, 112 g ai/ha, 28 DAT) was 0.00%, the “% phytotoxicity” value ([2]; Spray, 280 g ai/ha, 7 DAT) was 66.70% and the “% phytotoxicity” value ([2]; Spray, 280 g ai/ha, 11 DAT) was 25.00%. For the same molecule, the “% phytotoxicity” value ([2]; Spray, 280 g ai/ha, 15 DAT) was 10.00%, the “% phytotoxicity” value ([2]; Spray, 280 g ai/ha, 20 DAT) was 6.00% and the “% phytotoxicity” value ([2]; Spray, 280 g ai/ha, 28 DAT) was 0.00%. The “% control” value (Paspalum sp.; 1 appl, 140 g ai/ha, 5 DAT) was 16.67%, the “% control” value (Paspalum sp.; 1 appl, 140 g ai/ha, 13 DAT) was 60.00% and the “% control” value (Paspalum sp.; 1 appl, 140 g ai/ha, 21 DAT) was 55.00%. The “% control” value (Paspalum sp.; 1 appl, 140 g ai/ha, 27 DAT) was 46.67%, the “% control” value (Paspalum sp.; 1 appl, 140 g ai/ha, 35 DAT) was 21.67% and the “% control” value (Paspalum sp.; 1 appl, 140 g ai/ha, 42 DAT) was 6.67%. For the same molecule, the “% control” value (Paspalum sp.; 1 appl, 140 g ai/ha, 61 DAT) was 13.33%, the “% control” value (Paspalum sp.; 1 appl, 280 g ai/ha, 5 DAT) was 21.67% and the “% control” value (Paspalum sp.; 1 appl, 280 g ai/ha, 13 DAT) was 71.67%. For the same molecule, the “% control” value (Paspalum sp.; 1 appl, 280 g ai/ha, 21 DAT) was 70.00%, the “% control” value (Paspalum sp.; 1 appl, 280 g ai/ha, 27 DAT) was 60.00% and the “% control” value (Paspalum sp.; 1 appl, 280 g ai/ha, 35 DAT) was 43.33%. For the same molecule, the “% control” value (Paspalum sp.; 1 appl, 280 g ai/ha, 42 DAT) was 20.00%, the “% control” value (Paspalum sp.; 1 appl, 280 g ai/ha, 61 DAT) was 18.33% and the “% control” value (Paspalum sp.; 2 appl, 140 g ai/ha, 5 DAT) was 20.00%. The “% control” value (Paspalum sp.; 2 appl, 140 g ai/ha, 13 DAT) was 61.67%, the “% control” value (Paspalum sp.; 2 appl, 140 g ai/ha, 21 DAT) was 61.67% and the “% control” value (Paspalum sp.; 2 appl, 140 g ai/ha, 27 DAT) was 56.67%. The “% control” value (Paspalum sp.; 2 appl, 140 g ai/ha, 35 DAT) was 83.33%, the “% control” value (Paspalum sp.; 2 appl, 140 g ai/ha, 42 DAT) was 81.67% and the “% control” value (Paspalum sp.; 2 appl, 140 g ai/ha, 61 DAT) was 70.00%. The “% control” value (Paspalum sp.; 2 appl, 280 g ai/ha, 5 DAT) was 20.00%, the “% control” value (Paspalum sp.; 2 appl, 280 g ai/ha, 13 DAT) was 68.33% and the “% control” value (Paspalum sp.; 2 appl, 280 g ai/ha, 21 DAT) was 68.33%. The “% control” value (Paspalum sp.; 2 appl, 280 g ai/ha, 27 DAT) was 58.33%, the “% control” value (Paspalum sp.; 2 appl, 280 g ai/ha, 35 DAT) was 91.67% and the “% control” value (Paspalum sp.; 2 appl, 280 g ai/ha, 42 DAT) was 95.00%. For the same molecule, the “% control” value (Paspalum sp.; 2 appl, 280 g ai/ha, 61 DAT) was 81.67%, the “% phytotoxicity” value ([3]; Granule A (inert), 112 g ai/ha, 7 DAT) was 6.00% and the “% phytotoxicity” value ([3]; Granule A (inert), 112 g ai/ha, 11 DAT) was 0.00%. For the same molecule, the “% phytotoxicity” value ([3]; Granule A (inert), 280 g ai/ha, 7 DAT) was 23.30%, the “% phytotoxicity” value ([3]; Granule A (inert), 280 g ai/ha, 11 DAT) was 8.30% and the “% phytotoxicity” value ([3]; Granule A (inert), 280 g ai/ha, 15 DAT) was 2.30%. The “% phytotoxicity” value ([3]; Granule A (inert), 280 g ai/ha, 20 DAT) was 0.00%, the “% phytotoxicity” value ([3]; Granule B (fertiliser), 112 g ai/ha, 7 DAT) was 16.70% and the “% phytotoxicity” value ([3]; Granule B (fertiliser), 280 g ai/ha, 7 DAT) was 33.30%. The “% damage” value (Dandelion; 210 g/ha) was 82.5%, the “% damage” value (Dandelion; 280 g/ha) was 90% and the “% damage” value (Tall fescue; 210 g/ha) was 0%. The “% damage” value (Tall fescue; 280 g/ha) was 0%.

Reference: patent US20100184596A1, “METHOD FOR THE CONTROL OF WEEDS IN TURF” (SYNGENTA CROP PROTECTION, INC., priority 2007, published 2010)
